Measurements reported in US20250205221A1, “MUSCLE RELAXANT” (priority 2022, published 2025).

Key:
[1] = tested on: twitch response of the gastrocnemius muscle; test: Evaluation of neuromuscular blocking effect (time to complete recovery of twitch response); assay type: in vivo, Male Sprague Dawley rats; conditions: for time until the muscle contraction (twitch response) was completely recovered: rats under isoflurane, dose inducing 95-99.9% neuromuscular block (ED95-99.9) via right jugular vein, sciatic nerve stimulation 0.1 Hz; for duration of action relative to succinylcholine: rats, doses inducing 95-99.9% neuromuscular block
Protocol: Male Sprague Dawley rats (about 300 g body weight) were used in the experiment. Anesthesia was first induced by 4 to 5% isoflurane inhalation and then maintained by 2 to 3% isoflurane inhalation. A warming system was used to keep the body temperature at 36 to 37° C. Lidocaine was infiltrated into the incision site. Tracheostomy was performed and a 16G catheter was inserted to secure the airway. The animals were ventilated by isoflurane and oxygen inhalation using a rodent ventilator at a tidal volume of 10 mL/kg and a respiratory rate of 70/min. A […] catheter was indwelled in the right jugular vein for drug administration. A small slide electrode was attached to the sciatic nerve, and supramaximal stimulation was applied at a frequency of 0.1 Hz and a pulse width of 0.2 ms using an electrostimulator. Using a force transducer, the twitch response of the gastrocnemius muscle was captured, amplified, and recorded. After the amplitude of the twitch response stabilized, a dose of succinylcholine or the JH-cpd series (JH013, JH014) inducing 95-99.9% neuromuscular block was administered, and the time until the muscle contraction (twitch response) was completely recovered was measured.

[2] = reported in Non-Patent Document 1; cited from earlier work

Compound | time until the muscle contraction (twitch response) was completely recovered [1] | duration of action relative to succinylcholine [1] | duration of action at clinical doses [2]
COc1ccc(CC2c3cc(OC)c(OC)cc3CC[N+]2(C)CCCOC(=O)/C=C/C(=O)OCC[N+](C)(C)C)cc1OC (stereo not drawn) [JH013] | 5.5 min | approximately half | –
COc1ccc(CC2c3cc(OC)c(OC)cc3CC[N+]2(C)CCOC(=O)/C=C/C(=O)OCC[N+](C)(C)C)cc1OC (stereo not drawn) [JH014] | 7.5 min | approximately two-thirds | –
C[N+](C)(C)CCOC(=O)CCC(=O)OCC[N+](C)(C)C [succinylcholine, reference compound] | 11 min | – | approximately 10 minutes
